Experimental data reported in ChEMBL document CHEMBL5143734, “Seco-Lupane Triterpene Derivatives Induce Ferroptosis through GPX4/ACSL4 Axis and Target Cyclin D1 to Block the Cell Cycle” (J Med Chem, 2022).

Experiments:
Format in all cases: functional, cell-based
[1] = tested on: PANC-1; experiment: Cytotoxicity against human PANC-1 cells assessed as reduction in cell viability by CCK-8 assay
[2] = tested on: MCF7; experiment: Cytotoxicity against human MCF7 cells assessed as reduction in cell viability by CCK-8 assay
[3] = tested on: HepG2; experiment: Cytotoxicity against human HepG2 cells assessed as reduction in cell viability by CCK-8 assay
[4] = tested on: A549; experiment: Cytotoxicity against human A549 cells assessed as reduction in cell viability by CCK-8 assay
[5] = tested on: PC-3M; experiment: Cytotoxicity against human PC-3M cells assessed as reduction in cell viability by CCK-8 assay

Compound | IC50 [1] | IC50 [2] | IC50 [3] | IC50 [4] | IC50 [5]
C=C(C)[C@@H]1CC[C@]2(C(=O)OCCCBr)CC[C@]3(C)[C@H](C[C@H]4OC(=O)C[C@@H](O)[C@]5(C)[C@@H]4[C@@]3(C)CC[C@H]5C(=C)C)[C@@H]12 | > 200 µM | > 200 µM | > 200 µM | 136 µM | 109 µM
C=C(C)[C@@H]1CC[C@]2(C(=O)OCCCCCn3ccnc3)CC[C@]3(C)[C@H](C[C@@H](O)[C@@H]4[C@@]5(C)C(CC(=O)OC)OC(C)(C)C5CC[C@]43C)[C@@H]12 (stereo not given in full) | 50 µM | 65.1 µM | 24.6 µM | 34.9 µM | 30.6 µM
C=C(C)[C@@H]1CC[C@]2(C(=O)OCCCBr)CC[C@]3(C)[C@H](C[C@@H](O)[C@@H]4[C@@]5(C)C(CC(=O)OC)OC(C)(C)C5CC[C@]43C)[C@@H]12 (stereo not given in full) | 70.7 µM | 98.8 µM | 28.6 µM | 41.2 µM | 47.6 µM
C=C(C)[C@@H]1CC[C@]2(C(=O)OCCCCCCCCCCn3ccnc3)CC[C@]3(C)[C@H](C[C@@H](O)[C@@H]4[C@@]5(C)C(CC(=O)OC)OC(C)(C)C5CC[C@]43C)[C@@H]12 (stereo not given in full) | 14 µM | 36.1 µM | 6.83 µM | 22.4 µM | 14 µM
C=C(C)[C@@H]1CC[C@]2(C(=O)OCCCCCCn3cc(CCN)c4ccccc43)CC[C@]3(C)[C@H](C[C@H]4OC(=O)C[C@@H](O)[C@]5(C)[C@@H]4[C@@]3(C)CC[C@H]5C(=C)C)[C@@H]12 | 7.02 µM | 5.87 µM | 1.03 µM | 6.5 µM | 6 µM
C=C(C)[C@@H]1CC[C@]2(C(=O)OCCCCCn3ccnc3)CC[C@]3(C)[C@H](C[C@H]4OC(=O)C[C@@H](O)[C@]5(C)[C@@H]4[C@@]3(C)CC[C@H]5C(=C)C)[C@@H]12 | 32.3 µM | 45.6 µM | 16.1 µM | 25.2 µM | 11.8 µM
C=C(C)[C@@H]1CC[C@]2(C(=O)OCCCn3ccnc3)CC[C@]3(C)[C@H](C[C@H]4OC(=O)C[C@@H](O)[C@]5(C)[C@@H]4[C@@]3(C)CC[C@H]5C(=C)C)[C@@H]12 | 89.1 µM | 48.6 µM | > 200 µM | 55.5 µM | 24.7 µM
C=C(C)[C@@H]1CC[C@]2(C(=O)OCCCCCCn3cnc(C)c3)CC[C@]3(C)[C@H](C[C@H]4OC(=O)C[C@@H](O)[C@]5(C)[C@@H]4[C@@]3(C)CC[C@H]5C(=C)C)[C@@H]12 | 13.3 µM | 44.9 µM | 3.64 µM | 14.2 µM | 12.2 µM
C=C(C)[C@@H]1CC[C@]2(C(=O)OCCCCCCCCCCn3cncn3)CC[C@]3(C)[C@H](C[C@H]4OC(=O)C[C@@H](O)[C@]5(C)[C@@H]4[C@@]3(C)CC[C@H]5C(=C)C)[C@@H]12 | 36.4 µM | 46.2 µM | 14.6 µM | 29.4 µM | 19.9 µM
C=C(C)[C@@H]1CC[C@]2(C(=O)OCCCCCCCCCCn3ccnc3CC)CC[C@]3(C)[C@H](C[C@@H](O)[C@@H]4[C@@]5(C)C(CC(=O)OC)OC(C)(C)C5CC[C@]43C)[C@@H]12 (stereo not given in full) | 10.6 µM | 18.5 µM | 6.97 µM | 18.5 µM | 11.5 µM
C=C(C)[C@@H]1CC[C@]2(C(=O)OCCCCn3ccnc3C)CC[C@]3(C)[C@H](C[C@@H](O)[C@@H]4[C@@]5(C)C(CC(=O)OC)OC(C)(C)C5CC[C@]43C)[C@@H]12 (stereo not given in full) | 48.3 µM | 67.3 µM | 21.7 µM | 31.4 µM | 36 µM
C=C(C)[C@@H]1CC[C@]2(C(=O)OCCCCCn3cc(CCN)c4ccccc43)CC[C@]3(C)[C@H](C[C@@H](O)[C@@H]4[C@@]5(C)C(CC(=O)OC)OC(C)(C)C5CC[C@]43C)[C@@H]12 (stereo not given in full) | 5.81 µM | 18.1 µM | 1.7 µM | 6.63 µM | 3.87 µM
C=C(C)[C@@H]1CC[C@]2(C(=O)OCCCCCCBr)CC[C@]3(C)[C@H](C[C@H]4OC(=O)C[C@@H](O)[C@]5(C)[C@@H]4[C@@]3(C)CC[C@H]5C(=C)C)[C@@H]12 | 21.8 µM | 75.7 µM | 12.3 µM | 27.6 µM | 16.1 µM
C=C(C)[C@@H]1CC[C@]2(C(=O)OCCCCn3ccnc3C)CC[C@]3(C)[C@H](C[C@H]4OC(=O)C[C@@H](O)[C@]5(C)[C@@H]4[C@@]3(C)CC[C@H]5C(=C)C)[C@@H]12 | 56.5 µM | 77.6 µM | 27.8 µM | 48.4 µM | 30 µM
C=C(C)[C@@H]1CC[C@]2(C(=O)OCCCn3cncn3)CC[C@]3(C)[C@H](C[C@H]4OC(=O)C[C@@H](O)[C@]5(C)[C@@H]4[C@@]3(C)CC[C@H]5C(=C)C)[C@@H]12 | 140 µM | 51.2 µM | > 200 µM | 45.2 µM | 34 µM
C=C(C)[C@@H]1CC[C@]2(C(=O)OCCCCn3cnc(C)c3)CC[C@]3(C)[C@H](C[C@H]4OC(=O)C[C@@H](O)[C@]5(C)[C@@H]4[C@@]3(C)CC[C@H]5C(=C)C)[C@@H]12 | 29.2 µM | 45.3 µM | 16 µM | 20 µM | 15.5 µM
C=C(C)[C@@H]1CC[C@]2(C(=O)OCCCn3cncn3)CC[C@]3(C)[C@H](C[C@@H](O)[C@@H]4[C@@]5(C)C(CC(=O)OC)OC(C)(C)C5CC[C@]43C)[C@@H]12 (stereo not given in full) | 57 µM | 81.6 µM | 29.2 µM | 31.3 µM | 43.2 µM
C=C(C)[C@@H]1CC[C@]2(C(=O)OCCCCCCn3cnc(C)c3)CC[C@]3(C)[C@H](C[C@@H](O)[C@@H]4[C@@]5(C)C(CC(=O)OC)OC(C)(C)C5CC[C@]43C)[C@@H]12 (stereo not given in full) | 17.7 µM | 33.4 µM | 12.8 µM | 25 µM | 18.4 µM
C=C(C)[C@@H]1CC[C@]2(C(=O)OCCCCCn3cnc(C)c3)CC[C@]3(C)[C@H](C[C@H]4OC(=O)C[C@@H](O)[C@]5(C)[C@@H]4[C@@]3(C)CC[C@H]5C(=C)C)[C@@H]12 | 26.5 µM | 95.8 µM | 10.6 µM | 12.9 µM | 14.8 µM
